Literature values, collected in patent US20050113271A1, “Automatic dishwashing detergent with improved glass anti-corrosion properties II” (priority 2002, published 2005).
Where two headings read alike, the source gives them in different places. Blank lines part the entries; values can stand above or below the compound they belong to.

Solubility (in words) (20° C.): Virtually insoluble (20° C.)
Compound: Zinc hydroxycarbonate

Solubility (20° C.): 4 g/l (20° C.)
Compound: Zinc acetylacetonate

Compound: [Cl-].[Cl-].[Zn+2] [Zinc chloride]
Solubility (25° C.): 4320 g/l (25° C.)
